What was measured:
[1] = target: T1, CDK12/Cyclin K (Homo sapiens) (UniProt O75909+Q9NYV4); assay: Inhibition of BODIPY-FL-labeled AT-7519 binding to human His-tagged CDK12/CycK assessed as BODIPY-FL-labeled AT-7519 binding by measuring fluorescence intensity at 1 uM incubated for 120 mins in presence of 3 uM BODIPY-FL-labeled AT-7519 by TR-FRET assay relative to control; format: protein-complex assay
[2] = target: T1, CDK12/Cyclin K (Homo sapiens); assay: Inhibition of BODIPY-FL-labeled AT-7519 binding to human His-tagged CDK12/CycK assessed as BODIPY-FL-labeled AT-7519 binding by measuring fluorescence intensity at 1 uM incubated for 120 mins in presence of 30 uM BODIPY-FL-labeled AT-7519 by TR-FRET assay relative to control; format: protein-complex assay
[3] = target: T1, CDK12/Cyclin K (Homo sapiens); assay: Inhibition of human CDK12/CycK in human A2780 cells assessed as intracellular phosphorylated CTD Ser2 art 1 uM by In-Cell Western method relative to control; format: cell-based
[4] = target: T1, CDK12/Cyclin K (Homo sapiens); assay: Inhibition of human His-tagged CDK12/CycK using ULight-labeled eIF4E-binding protein 1 substrate at 1 uM incubated for 60 mins by fluorescence based assay relative to control; format: protein-complex assay
A2780 = assay: Antiproliferative activity against human A2780 cells at 1 uM by CellTiter-Glo reagent assay relative to control; format: functional

T1 sequence (O75909 whole entry, looked up): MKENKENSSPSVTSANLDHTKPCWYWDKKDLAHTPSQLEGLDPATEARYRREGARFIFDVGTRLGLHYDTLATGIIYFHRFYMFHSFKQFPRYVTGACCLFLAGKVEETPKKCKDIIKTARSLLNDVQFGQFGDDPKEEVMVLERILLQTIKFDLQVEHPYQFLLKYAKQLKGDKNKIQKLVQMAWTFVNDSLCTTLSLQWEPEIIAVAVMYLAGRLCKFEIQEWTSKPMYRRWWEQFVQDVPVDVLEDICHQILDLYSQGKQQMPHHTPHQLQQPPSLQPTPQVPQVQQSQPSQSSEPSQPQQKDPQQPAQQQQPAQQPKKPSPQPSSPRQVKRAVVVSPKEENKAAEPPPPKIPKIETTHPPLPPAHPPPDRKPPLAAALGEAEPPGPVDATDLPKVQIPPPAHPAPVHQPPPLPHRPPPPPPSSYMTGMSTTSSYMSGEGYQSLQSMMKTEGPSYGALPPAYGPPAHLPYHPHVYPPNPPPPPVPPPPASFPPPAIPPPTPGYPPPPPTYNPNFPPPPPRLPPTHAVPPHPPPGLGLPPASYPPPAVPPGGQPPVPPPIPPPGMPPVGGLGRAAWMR
T1 sequence (Q9NYV4 whole entry, looked up): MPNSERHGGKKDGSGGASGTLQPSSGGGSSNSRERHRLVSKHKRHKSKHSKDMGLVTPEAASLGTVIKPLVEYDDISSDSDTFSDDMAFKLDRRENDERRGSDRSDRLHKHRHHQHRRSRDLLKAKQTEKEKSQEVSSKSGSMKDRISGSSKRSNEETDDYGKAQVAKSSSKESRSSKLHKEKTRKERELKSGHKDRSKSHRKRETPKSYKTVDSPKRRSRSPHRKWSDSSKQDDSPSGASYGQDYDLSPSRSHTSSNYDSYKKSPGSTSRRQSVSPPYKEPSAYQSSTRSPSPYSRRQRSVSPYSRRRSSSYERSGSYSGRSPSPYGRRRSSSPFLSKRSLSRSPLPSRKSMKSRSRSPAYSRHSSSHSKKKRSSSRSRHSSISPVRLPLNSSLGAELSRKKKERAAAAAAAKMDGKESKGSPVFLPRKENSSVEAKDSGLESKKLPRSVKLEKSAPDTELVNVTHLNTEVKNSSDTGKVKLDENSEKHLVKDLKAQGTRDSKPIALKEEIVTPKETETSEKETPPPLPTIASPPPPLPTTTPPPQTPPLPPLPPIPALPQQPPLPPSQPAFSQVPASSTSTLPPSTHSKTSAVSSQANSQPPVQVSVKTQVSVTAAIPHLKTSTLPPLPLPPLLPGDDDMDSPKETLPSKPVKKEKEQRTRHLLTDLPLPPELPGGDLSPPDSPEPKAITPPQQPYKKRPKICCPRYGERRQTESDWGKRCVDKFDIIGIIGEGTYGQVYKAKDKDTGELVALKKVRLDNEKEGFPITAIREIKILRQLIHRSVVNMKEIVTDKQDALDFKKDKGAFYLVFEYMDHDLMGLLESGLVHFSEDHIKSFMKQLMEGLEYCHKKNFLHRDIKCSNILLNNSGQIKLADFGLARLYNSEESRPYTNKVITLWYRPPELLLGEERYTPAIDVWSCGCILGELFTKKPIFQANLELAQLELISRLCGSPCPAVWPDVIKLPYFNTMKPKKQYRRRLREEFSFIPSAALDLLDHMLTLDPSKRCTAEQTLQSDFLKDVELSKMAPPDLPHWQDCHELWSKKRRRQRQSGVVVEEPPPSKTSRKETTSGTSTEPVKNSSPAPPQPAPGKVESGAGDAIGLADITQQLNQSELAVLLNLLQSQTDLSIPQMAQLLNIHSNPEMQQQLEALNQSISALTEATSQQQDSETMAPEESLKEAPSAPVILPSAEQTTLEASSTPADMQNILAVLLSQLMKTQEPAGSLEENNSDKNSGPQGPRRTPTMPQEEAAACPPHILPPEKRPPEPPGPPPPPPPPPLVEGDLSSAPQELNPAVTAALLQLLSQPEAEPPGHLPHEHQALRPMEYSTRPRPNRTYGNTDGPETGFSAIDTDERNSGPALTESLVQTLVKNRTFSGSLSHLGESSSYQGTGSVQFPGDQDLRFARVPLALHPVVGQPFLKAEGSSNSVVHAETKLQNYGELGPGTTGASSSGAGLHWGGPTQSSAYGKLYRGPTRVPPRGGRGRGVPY

`COc1ncc(-c2ccc(N(C(=O)COc3ccccc3)[C@H]3CC[C@H](Nc4ncc(C#N)c(OC5COC5)n4)CC3)nc2)cn1` gave an inhibition [1] of 98%.

`COCCNC(=O)N(c1cnc(-c2cnc(OC)nc2)cn1)[C@H]1CC[C@H](Nc2ncc(C(F)(F)F)c(-c3ccn(C(F)F)n3)n2)CC1` gave an inhibition [2] of 90%.

`COc1ncc(-c2cnc(N(C(=O)NCc3ccccc3)[C@H]3CC[C@H](Nc4ncc(C#N)c(N5CCCC(O)CC5)n4)CC3)nc2)cn1` (some centres undefined) showed an inhibition [3] of 48%.

Work on `COc1ncc(-c2cnc(N(C(=O)COc3ccccc3)[C@H]3CC[C@H](Nc4ncc(C(F)(F)F)c(N5CC(C)(O)C5)n4)CC3)cn2)cn1` yielded an inhibition [1] of 100%.

With `COc1ncc(-c2cnc(N(C(=O)NCc3ccccc3)[C@H]3CC[C@H](Nc4ncc(C(F)(F)F)c(N5CC(C)(O)C5)n4)CC3)cn2)cn1` the inhibition [1] was 103%.

`COc1ncc(-c2cnc(N(C(=O)NCc3ccccn3)[C@H]3CC[C@H](Nc4ncc(C(F)(F)F)c(OC5COC5)n4)CC3)nc2)cn1` gave an inhibition [1] of 103%, an inhibition [4] of 99% and an inhibition at 1 µM (A2780) of 98%.

`COCCOC(=O)N(c1cnc(-c2cnc(OC)nc2)cn1)[C@H]1CC[C@H](Nc2ncc(C(F)(F)F)c(-c3cncc(S(N)(=O)=O)c3)n2)CC1` was tested, and the inhibition [2] was 91%.

`COc1ncc(-c2cnc(N(C(=O)NCc3ccccc3)[C@H]3CC[C@H](Nc4ncc(C(F)(F)F)c(NC5COC5)n4)CC3)nc2)cn1` showed an inhibition [1] of 96%.

`COc1ncc(-c2ccc(N(C(=O)COc3ccccc3)[C@H]3CC[C@H](Nc4ncc(C#N)c(N5CCCC(O)CC5)n4)CC3)nc2)cn1` (some centres undefined) was tested, and the inhibition [1] was 104%.

For `COCC(=O)N(c1cnc(-c2cnn(C)c2)cn1)[C@H]1CC[C@H](Nc2ncc(C(F)(F)F)c(-c3cncc(S(N)(=O)=O)c3)n2)CC1`, the inhibition [2] was 95%.

`Cn1cc(-c2ccc(N(C(=O)NCc3ccccc3)[C@H]3CC[C@H](Nc4ncc(C#N)c(-c5[nH]ncc5O)n4)CC3)nc2)cn1` showed an inhibition [1] of 96%.

For `CCCC(=O)N(c1cnc(-c2cnn(C)c2)cn1)[C@H]1CC[C@H](Nc2ncc(C(F)(F)F)c(-c3cncc(S(N)(=O)=O)c3)n2)CC1`, the inhibition [2] was 99%.

Work on `COc1ncc(-c2cnc(N(C(=O)OCCN3CCOCC3)[C@H]3CC[C@H](Nc4ncc(C(F)(F)F)c(-c5cncc(S(N)(=O)=O)c5)n4)CC3)cn2)cn1` yielded an inhibition [2] of 99%.

Work on `COc1ncc(-c2cnc(N(C(=O)NCc3ccccc3)[C@H]3CC[C@H](Nc4ncc(C#N)c(N5CC(C)(O)C5)n4)CC3)nc2)cn1` yielded an inhibition [1] of 95%, an inhibition [4] of 105% and an inhibition at 1 µM (A2780) of 94%. For the same molecule, the inhibition [3] was 54%.
